Here are results for one molecule from BindingDB's records for doi:10.1016/j.bmc.2012.05.002 (Seoul National University, 2012).

This test deals with T1, Sortase family protein (Staphylococcus aureus, UniProt Q9S446).
T1 sequence (Q9S446 whole entry): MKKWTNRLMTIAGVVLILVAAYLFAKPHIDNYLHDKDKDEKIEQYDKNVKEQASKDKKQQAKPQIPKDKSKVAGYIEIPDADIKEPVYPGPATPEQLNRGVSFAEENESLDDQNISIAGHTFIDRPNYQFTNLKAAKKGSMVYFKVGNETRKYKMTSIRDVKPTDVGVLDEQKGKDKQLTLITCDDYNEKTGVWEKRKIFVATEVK
Briefly: Inhibition of Staphylococcus aureus ATCC 6538p recombinant SrtA.

Molecules are shown by their SMILES.

In the case of `O=C(O)c1cc[c]([Hg][OH])cc1`, the concentration for half-maximal inhibition (IC50) – broadly, the midpoint of a concentration-inhibition curve – came out at 112 µM.
